For 8 compounds, EC50 results are on record in patent US10421774B2 (priority 2016, dated 2019).

Common to all, as to test: microbe, parasite or virus in culture
Common to all, as to assay type: cell-based, HIV-1

The subject of assay [1] is T332S/V362I/Pr R41G virus. The note with it: Human immunodeficiency virus 1, MT2, read-out: T332S/V362I/pr41G EC50. The procedure, abridged: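 Renilla luciferase NL4-3 reporter virus (Gag P373S background) carrying Gag T332S/V362I plus protease R41G, inoculum normalized by luciferase signal, infected MT-2 cells (10,000/well). Compounds 3-fold diluted, 1% DMSO final. After 4–5 days at 37 °C, virus yield measured as Renilla luciferase activity in a multiple-cycle assay.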

In a further assay the test system is gag V370A/ΔT371 virus. The note with it: Human immunodeficiency virus 1, MT2, read-out: V370A/ΔT371 EC50. The procedure, abridged:
(§1)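 Multiple-cycle assay in MT-2 cells infected with Renilla luciferase NL4-3 (Gag P373S background) carrying site-directed Gag A364V or V370A/ΔT371 changes, inocula normalized by luciferase signal. 10,000 cells/well, 3-fold compound dilutions, 1% DMSO, 4–5 days at 37°C; yield read as Renilla luciferase.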

In assay [2] the test system is A364V site directed mutant virus. The note with it: Human immunodeficiency virus 1, MT2, read-out: A364V EC50. The procedure, abridged: as §1
The test system of assay [3] is NLRepRlucP373S recombinant wild type (WT) virus. The note with it: Human immunodeficiency virus 1, MT2, read-out: WT EC50. The gist of the method:
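MT-2 cells infected with NLRepRlucP373S Renilla luciferase reporter virus (NL4-3, Gag P373S), inocula normalized by luciferase signal; compounds 3-fold serially diluted, 1% DMSO final. Virus yield read by Renilla luciferase after 4-5 days at 37 °C. EC50/EC90 from median effect equation; background = signal at NFV 3 μM.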

Structures are written as SMILES.

As to `C=C(C)[C@@H]1CC[C@]2(NCCN3CCS(=O)(=O)CC3)CC[C@]3(C)[C@H](CC[C@@H]4[C@@]5(C)CC=C(C6=CCC(CCOc7ccccn7)(C(=O)O)CC6)C(C)(C)[C@@H]5CC[C@]43C)[C@@H]12` (stereo partly drawn) [Example A20, 4-((1R,3aS,5aR,5bR,7aR,11aS,11bR,13aR,13bR)-3a-((2-(1,1-dioxidothiomorpholino)ethyl)amino)-5a,5b,8,8,11a-pentamethyl-1-(prop-1-en-2-yl)-2,3,3a,4,5,5a,5b,6,7,7a,8,11,11a,11b,12,13,13a,13b-octadecahydro-1H-cyclopenta[a]chrysen-9-yl)-1-(2-(pyridin-2-yloxy)ethyl)cyclohex-3-ene-1-carboxylic acid], the EC50 (in assay [1]; in the assay with gag V370A/ΔT371 virus; in assay [2]; in assay [3]) was below 50 nM in each case.

With `C=C(C)[C@@H]1CC[C@]2(NCCN3CCS(=O)(=O)CC3)CC[C@]3(C)[C@H](CC[C@@H]4[C@@]5(C)CC=C(C6=CCC(CCOc7cc(C)sn7)(C(=O)O)CC6)C(C)(C)[C@@H]5CC[C@]43C)[C@@H]12` (stereo partly drawn) [Example A21, 4-((1R,3aS,5aR,5bR,7aR,11aS,11bR,13aR,13bR)-3a-((2-(1,1-dioxidothiomorpholino)ethyl)amino)-5a,5b,8,8,11a-pentamethyl-1-(prop-1-en-2-yl)-2,3,3a,4,5,5a,5b,6,7,7a,8,11,11a,11b,12,13,13a,13b-octadecahydro-1H-cyclopenta[a]chrysen-9-yl)-1-(2-((5-methylisothiazol-3-yl)oxy)ethyl)cyclohex-3-ene-1-carboxylic acid], the EC50 in assay [1] came to 18 nM; in the assay on gag V370A/ΔT371 virus, 18 nM; in assay [2], 17 nM; in assay [3] it was 3 nM.

Consider `C=C(C)[C@@H]1CC[C@]2(NCCN3CCS(=O)(=O)CC3)CC[C@]3(C)[C@H](CC[C@@H]4[C@@]5(C)CC=C(C6=CCC(CCOc7ncccc7C#N)(C(=O)O)CC6)C(C)(C)[C@@H]5CC[C@]43C)[C@@H]12` (stereo partly drawn) [Example A22, 1-(2-((3-cyanopyridin-2-yl)oxy)ethyl)-4-((1R,3aS,5aR,5bR,7aR,11aS,11bR,13aR,13bR)-3a-((2-(1,1-dioxidothiomorpholino)ethyl)amino)-5a,5b,8,8,11a-pentamethyl-1-(prop-1-en-2-yl)-2,3,3a,4,5,5a,5b,6,7,7a,8,11,11a,11b,12,13,13a,13b-octadecahydro-1H-cyclopenta[a]chrysen-9-yl)cyclohex-3-ene-1-carboxylic acid], for which the EC50 was found to be 13 nM in assay [1], 13 nM with gag V370A/ΔT371 virus, 27 nM in assay [2] and 4 nM in assay [3].

For `C=C(C)[C@@H]1CC[C@]2(NCCN3CCS(=O)(=O)CC3)CC[C@]3(C)[C@H](CC[C@@H]4[C@@]5(C)CC=C(C6=CCC(CCOc7cc(C(=O)O)ccn7)(C(=O)O)CC6)C(C)(C)[C@@H]5CC[C@]43C)[C@@H]12` (stereo partly drawn) [Example A23, 2-(2-(1-carboxy-4-((1R,3aS,5aR,5bR,7aR,11aS,11bR,13aR,13bR)-3a-((2-(1,1-dioxidothiomorpholino)ethyl)amino)-5a,5b,8,8,11a-pentamethyl-1-(prop-1-en-2-yl)-2,3,3a,4,5,5a,5b,6,7,7a,8,11,11a,11b,12,13,13a,13b-octadecahydro-1H-cyclopenta[a]chrysen-9-yl)cyclohex-3-en-1-yl)ethoxy)isonicotinic acid], the EC50 in assay [1] is 193 nM; in the assay on gag V370A/ΔT371 virus, above 50 nM; in assay [2] it was 333 nM; in assay [3] it was 7 nM.

With `C=C(C)[C@@H]1CC[C@]2(NCCN3CCS(=O)(=O)CC3)CC[C@]3(C)[C@H](CC[C@@H]4[C@@]5(C)CC=C(C6=CCC(CCOc7cc(C#N)ccn7)(C(=O)O)CC6)C(C)(C)[C@@H]5CC[C@]43C)[C@@H]12` (stereo partly drawn) [Example A24, 1-(2-((4-cyanopyridin-2-yl)oxy)ethyl)-4-((1R,3aS,5aR,5bR,7aR,11aS,11bR,13aR,13bR)-3a-((2-(1,1-dioxidothiomorpholino)ethyl)amino)-5a,5b,8,8,11a-pentamethyl-1-(prop-1-en-2-yl)-2,3,3a,4,5,5a,5b,6,7,7a,8,11,11a,11b,12,13,13a,13b-octadecahydro-1H-cyclopenta[a]chrysen-9-yl)cyclohex-3-ene-1-carboxylic acid], the EC50 in assay [1] stood at 3000 nM; with gag V370A/ΔT371 virus, 3000 nM; in assay [2] it was 7 nM; in assay [3], 1 nM.

For `C=C(C)[C@@H]1CC[C@]2(NCCN3CCS(=O)(=O)CC3)CC[C@]3(C)[C@H](CC[C@@H]4[C@@]5(C)CC=C(C6=CCC(CCOc7ncccn7)(C(=O)O)CC6)C(C)(C)[C@@H]5CC[C@]43C)[C@@H]12` (stereo partly drawn) [Example A25, 4-((1R,3aS,5aR,5bR,7aR,11aS,11bR,13aR,13bR)-3a-((2-(1,1-dioxidothiomorpholino)ethyl)amino)-5a,5b,8,8,11a-pentamethyl-1-(prop-1-en-2-yl)-2,3,3a,4,5,5a,5b,6,7,7a,8,11,11a,11b,12,13,13a,13b-octadecahydro-1H-cyclopenta[a]chrysen-9-yl)-1-(2-(pyrimidin-2-yloxy)ethyl)cyclohex-3-ene-1-carboxylic acid], the EC50 (in assay [1]; in the assay with gag V370A/ΔT371 virus; in assay [2]; in assay [3]) was below 50 nM in each case.

`C=C(C)[C@@H]1CC[C@]2(NCCN3CCS(=O)(=O)CC3)CC[C@]3(C)[C@H](CC[C@@H]4[C@@]5(C)CC=C(C6=CCC(CCOc7nccc(C)n7)(C(=O)O)CC6)C(C)(C)[C@@H]5CC[C@]43C)[C@@H]12` (stereo partly drawn) [Example A26, 4-((1R,3aS,5aR,5bR,7aR,11aS,11bR,13aR,13bR)-3a-((2-(1,1-dioxidothiomorpholino)ethyl)amino)-5a,5b,8,8,11a-pentamethyl-1-(prop-1-en-2-yl)-2,3,3a,4,5,5a,5b,6,7,7a,8,11,11a,11b,12,13,13a,13b-octadecahydro-1H-cyclopenta[a]chrysen-9-yl)-1-(2-((4-methylpyrimidin-2-yl)oxy)ethyl)cyclohex-3-ene-1-carboxylic acid]: the EC50 in assay [1] is above 50 nM; with gag V370A/ΔT371 virus it was above 50 nM; in assay [2] it was above 50 nM; in assay [3] it was 5 nM.

For the compound `C=C(C)[C@@H]1CC[C@]2(NCCN3CCS(=O)(=O)CC3)CC[C@]3(C)[C@H](CC[C@@H]4[C@@]5(C)CC=C(C6=CCC(CCOc7nccc(OC)n7)(C(=O)O)CC6)C(C)(C)[C@@H]5CC[C@]43C)[C@@H]12` (stereo partly drawn) [Example A27, 4-((1R,3aS,5aR,5bR,7aR,11aS,11bR,13aR,13bR)-3a-((2-(1,1-dioxidothiomorpholino)ethyl)amino)-5a,5b,8,8,11a-pentamethyl-1-(prop-1-en-2-yl)-2,3,3a,4,5,5a,5b,6,7,7a,8,11,11a,11b,12,13,13a,13b-octadecahydro-1H-cyclopenta[a]chrysen-9-yl)-1-(2-((4-methoxypyrimidin-2-yl)oxy)ethyl)cyclohex-3-ene-1-carboxylic acid], the EC50 in assay [1] was 3000 nM; in the assay with gag V370A/ΔT371 virus, above 50 nM; in assay [2] it was above 50 nM; in assay [3] it was 22 nM.
